Reference: the supplement of paper PMC10307832

Experiments:
Assay in all cases: relative viability (nuclei count vs DMSO), 5 days (fraction); higher = more cells survive
[1] = tested on: A-427
In short: (§1)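 Relative viability was taken as the ratio of nuclei in treated wells to nuclei in vehicle wells. Lung cancer cell lines in 1536-well plates received compounds by pin tool one day after seeding, either one drug alone or a fixed anchor-drug dose plus five library-drug doses (not always all listed) in √10 steps. Nuclei were counted on 4× images after 5 days of treatment, and values are medians of duplicate plates.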

[2] = tested on: RERF-LC-KJ
In short: as §1

[3] = tested on: NCI-H1975
In short: as §1

[4] = tested on: NCI-H2228
In short: as §1

[5] = tested on: NCI-H2126
In short: as §1

[6] = tested on: NCI-H358
In short: as §1

[7] = tested on: NCI-H1915
In short: as §1

[8] = tested on: SW 1573
In short: as §1

[9] = tested on: NCI-H647
In short: as §1

[10] = tested on: NCI-H2347
In short: as §1

[11] = tested on: HCC-78
In short: as §1

[12] = tested on: LC-2-ad
In short: as §1

[13] = tested on: NCI-H522
In short: as §1

[14] = tested on: LXF-289
In short: as §1

[15] = tested on: HCC-15
In short: as §1

[16] = tested on: HOP-62
In short: as §1

[17] = tested on: NCI-H2342
In short: as §1

[18] = tested on: NCI-H1734
In short: as §1

[19] = tested on: NCI-H1755
In short: as §1

[20] = tested on: SK-LU-1
In short: as §1

[21] = tested on: PC-3 [JPC-3]
In short: as §1

[22] = tested on: NCI-H1792
In short: as §1

Cc1sc2c(c1C)C(c1ccc(Cl)cc1)=N[C@@H](CC(=O)OC(C)(C)C)c1nnc(C)n1-2 [JQ1] + Cc1nc(Nc2ncc(C(=O)Nc3c(C)cccc3Cl)s2)cc(N2CCN(CCO)CC2)n1 [Dasatinib] (partner 0.075 µM)
relative viability ([1]; first compound 0.04 µM): 0.759
relative viability ([1]; first compound 0.1265 µM): 0.592
relative viability ([1]; first compound 0.4 µM): 0.696
relative viability ([1]; first compound 1.265 µM): 0.696
relative viability ([1]; first compound 4 µM): 0.529
relative viability ([2]; first compound 0.04 µM): 0.763
relative viability ([2]; first compound 0.1265 µM): 0.646
relative viability ([2]; first compound 0.4 µM): 0.72
relative viability ([2]; first compound 1.265 µM): 0.576
relative viability ([2]; first compound 4 µM): 0.332
relative viability ([3]; first compound 0.04 µM): 0.414
relative viability ([3]; first compound 0.1265 µM): 0.316
relative viability ([3]; first compound 0.4 µM): 0.305
relative viability ([3]; first compound 1.265 µM): 0.227
relative viability ([3]; first compound 4 µM): 0.241
relative viability ([4]; first compound 0.04 µM): 0.416
relative viability ([4]; first compound 0.1265 µM): 0.476
relative viability ([4]; first compound 0.4 µM): 0.515
relative viability ([4]; first compound 1.265 µM): 0.189
relative viability ([4]; first compound 4 µM): 0.245
relative viability ([5]; first compound 0.04 µM): 0.651
relative viability ([5]; first compound 0.1265 µM): 0.575
relative viability ([5]; first compound 0.4 µM): 0.431
relative viability ([5]; first compound 1.265 µM): 0.433
relative viability ([5]; first compound 4 µM): 0.35
relative viability ([6]; first compound 0.04 µM): 0.182
relative viability ([6]; first compound 0.1265 µM): 0.262
relative viability ([6]; first compound 0.4 µM): 0.279
relative viability ([6]; first compound 1.265 µM): 0.183
relative viability ([6]; first compound 4 µM): 0.209
relative viability ([7]; first compound 0.04 µM): 0.281
relative viability ([7]; first compound 0.1265 µM): 0.303
relative viability ([7]; first compound 0.4 µM): 0.317
relative viability ([7]; first compound 1.265 µM): 0.249
relative viability ([7]; first compound 4 µM): 0.191
relative viability ([8]; first compound 0.04 µM): 0.486
relative viability ([8]; first compound 0.1265 µM): 0.447
relative viability ([8]; first compound 0.4 µM): 0.31
relative viability ([8]; first compound 1.265 µM): 0.218
relative viability ([8]; first compound 4 µM): 0.23
relative viability ([9]; first compound 0.04 µM): 0.147
relative viability ([9]; first compound 0.1265 µM): 0.0904
relative viability ([9]; first compound 0.4 µM): 0.124
relative viability ([9]; first compound 1.265 µM): 0.045
relative viability ([9]; first compound 4 µM): 0.0403
relative viability ([10]; first compound 0.04 µM): 0.273
relative viability ([10]; first compound 0.1265 µM): 0.395
relative viability ([10]; first compound 0.4 µM): 0.304
relative viability ([10]; first compound 1.265 µM): 0.371
relative viability ([10]; first compound 4 µM): 0.235
relative viability ([11]; first compound 0.04 µM): 0.364
relative viability ([11]; first compound 0.1265 µM): 0.419
relative viability ([11]; first compound 0.4 µM): 0.366
relative viability ([11]; first compound 1.265 µM): 0.319
relative viability ([11]; first compound 4 µM): 0.248
relative viability ([12]; first compound 0.04 µM): 0.505
relative viability ([12]; first compound 0.1265 µM): 0.472
relative viability ([12]; first compound 0.4 µM): 0.219
relative viability ([12]; first compound 1.265 µM): 0.178
relative viability ([12]; first compound 4 µM): 0.191
relative viability ([13]; first compound 0.04 µM): 0.951
relative viability ([13]; first compound 0.1265 µM): 0.641
relative viability ([13]; first compound 0.4 µM): 0.584
relative viability ([13]; first compound 1.265 µM): 0.575
relative viability ([13]; first compound 4 µM): 0.537
relative viability ([14]; first compound 0.04 µM): 0.283
relative viability ([14]; first compound 0.1265 µM): 0.117
relative viability ([14]; first compound 0.4 µM): 0.212
relative viability ([14]; first compound 1.265 µM): 0.156
relative viability ([14]; first compound 4 µM): 0.152
relative viability ([15]; first compound 0.04 µM): 0.524
relative viability ([15]; first compound 0.4 µM): 0.5
relative viability ([15]; first compound 1.265 µM): 0.339
relative viability ([15]; first compound 4 µM): 0.227
relative viability ([16]; first compound 0.04 µM): 0.559
relative viability ([16]; first compound 0.1265 µM): 0.31
relative viability ([16]; first compound 0.4 µM): 0.355
relative viability ([16]; first compound 1.265 µM): 0.158
relative viability ([16]; first compound 4 µM): 0.116
relative viability ([17]; first compound 0.04 µM): 0.315
relative viability ([17]; first compound 0.1265 µM): 0.304
relative viability ([17]; first compound 0.4 µM): 0.328
relative viability ([17]; first compound 1.265 µM): 0.286
relative viability ([17]; first compound 4 µM): 0.299
relative viability ([18]; first compound 0.04 µM): 0.55
relative viability ([18]; first compound 0.1265 µM): 0.444
relative viability ([18]; first compound 0.4 µM): 0.457
relative viability ([18]; first compound 1.265 µM): 0.454
relative viability ([18]; first compound 4 µM): 0.382
relative viability ([19]; first compound 0.04 µM): 0.421
relative viability ([19]; first compound 0.1265 µM): 0.277
relative viability ([19]; first compound 0.4 µM): 0.373
relative viability ([19]; first compound 1.265 µM): 0.343
relative viability ([19]; first compound 4 µM): 0.2
relative viability ([20]; first compound 0.04 µM): 0.185
relative viability ([20]; first compound 0.1265 µM): 0.18
relative viability ([20]; first compound 0.4 µM): 0.182
relative viability ([20]; first compound 1.265 µM): 0.124
relative viability ([20]; first compound 4 µM): 0.11
relative viability ([21]; first compound 0.04 µM): 0.998
relative viability ([21]; first compound 0.1265 µM): 1.02
relative viability ([21]; first compound 0.4 µM): 1.16
relative viability ([21]; first compound 1.265 µM): 0.96
relative viability ([21]; first compound 4 µM): 0.578
relative viability ([22]; first compound 0.04 µM): 0.837
relative viability ([22]; first compound 0.4 µM): 0.839
relative viability ([22]; first compound 1.265 µM): 0.579
relative viability ([22]; first compound 4 µM): 0.5
